The values that follow are results of earlier work, collected in patent US8653094B2, “Solid forms of (S)-ethyl 2-amino-3-(4-(2-amino-6-((R)-1-(4-chloro-2-(3-methyl-1H-pyrazol-1-yl)phenyl)-2,2,2-trifluoroethoxy)-pyrimidin-4-yl)phenyl)propanoate and methods of their use” (Lexicon Pharmaceuticals, Inc., priority 2007, dated 2014).

Series [1] has as its system tryptophan hydroxylase. Conditions: statement in words; see U.S. patent application No. 60/874,596.
The test system of series [2] is peripheral serotonin levels. The conditions noted are these: when administered to animals; see U.S. patent application No. 60/874,596.

Consider `CCOC(=O)[C@@H](N)Cc1ccc(-c2cc(O[C@H](c3ccc(Cl)cc3-n3ccc(C)n3)C(F)(F)F)nc(N)n2)cc1` [(S)-ethyl 2-amino-3-(4-(2-amino-6-((R)-1-(4-chloro-2-(3-methyl-1H-pyrazol-1-yl)phenyl)-2,2,2-trifluoroethoxy)pyrimidin-4-yl)phenyl)propanoate], for which, in series [1], the tryptophan hydroxylase inhibition entry is given as “inhibitor of tryptophan hydroxylase”. In series [2], the “effect on peripheral serotonin levels” value is “decreases peripheral serotonin levels”.
